# Reference: publication PMC9090415, “Discovery of small molecule inhibitors of Plasmodium falciparum apicoplast DNA polymerase” (Journal of Enzyme Inhibition and Medicinal Chemistry, 2022)
# Biological target: P. falciparum apicoplast DNA polymerase (Pf-apPOL) (Plasmodium falciparum, UniProt Q8ILY1)
# Test: Fluorescence-based high-throughput DNA polymerase assay (molecular beacon), primary screen and dose-response
# Type: biochemical
# Conditions: for DNA Pol: unit not given, 90 min, 10 µM
# Procedure, shortened: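 Single-point screening used 10 µM compound with 20 nM polymerase, 20 nM hairpin substrate and 6 µM dNTPs for 90 min at 25 °C. Confirmatory titrations (2.5–80 µM) followed fluorescence at three times, and IC50 was derived from a fit including a cooperativity term n.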
# P. falciparum apicoplast DNA polymerase (Pf-apPOL), sequence (Q8ILY1 entry or part of it): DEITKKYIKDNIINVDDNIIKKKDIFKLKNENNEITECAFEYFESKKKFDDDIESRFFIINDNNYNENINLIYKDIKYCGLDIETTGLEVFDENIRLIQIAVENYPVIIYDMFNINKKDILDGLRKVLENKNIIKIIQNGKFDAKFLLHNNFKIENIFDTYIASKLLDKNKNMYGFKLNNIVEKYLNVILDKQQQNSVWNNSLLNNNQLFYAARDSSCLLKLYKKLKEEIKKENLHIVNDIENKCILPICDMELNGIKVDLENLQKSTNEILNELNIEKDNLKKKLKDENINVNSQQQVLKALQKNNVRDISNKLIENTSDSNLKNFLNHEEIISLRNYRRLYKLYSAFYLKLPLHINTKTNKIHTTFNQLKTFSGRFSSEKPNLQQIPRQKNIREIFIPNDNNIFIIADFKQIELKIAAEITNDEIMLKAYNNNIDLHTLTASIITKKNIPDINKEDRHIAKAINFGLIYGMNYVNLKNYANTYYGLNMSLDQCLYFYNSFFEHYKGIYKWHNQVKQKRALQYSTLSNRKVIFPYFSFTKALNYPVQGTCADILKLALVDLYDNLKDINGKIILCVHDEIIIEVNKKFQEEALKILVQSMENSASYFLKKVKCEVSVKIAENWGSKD
compound,measurement,setting,value
"Cc1cc(C)c2c(O)nc(SCC(=O)c3ccc(O)c(O)c3)nc2n1 [Molecule 88, Cc1cc(C)c2c(n1)nc(nc2O)SCC(=O)c1ccc(c(c1)O)O]",% inhibition Apo pol 10',"DRC-1, concentration 2.5",66.1048%
same,% inhibition Apo pol 10',"DRC-1, concentration 5",84.19%
same,% inhibition Apo pol 10',"DRC-1, concentration 10",90.4679%
same,% inhibition Apo pol 10',"DRC-1, concentration 20",96.9488%
same,% inhibition Apo pol 10',"DRC-1, concentration 40",98.8856%
same,% inhibition Apo pol 10',"DRC-1, concentration 80",98.1462%
same,% inhibition Apol 90',"DRC-1, 90', concentration 2.5",42.8406%
same,% inhibition Apol 90',"DRC-1, 90', concentration 5",64.0677%
same,% inhibition Apol 90',"DRC-1, 90', concentration 10",76.3822%
same,% inhibition Apol 90',"DRC-1, 90', concentration 20",90.5503%
same,% inhibition Apol 90',"DRC-1, 90', concentration 40",93.4235%
same,% inhibition Apol 90',"DRC-1, 90', concentration 80",90.6466%
same,% inhibition apPOL 180',"DRC-1, 180', concentration 2.5",28.0012%
same,% inhibition apPOL 180',"DRC-1, 180', concentration 5",48.1017%
same,% inhibition apPOL 180',"DRC-1, 180', concentration 10",62.9235%
same,% inhibition apPOL 180',"DRC-1, 180', concentration 20",84.8942%
same,% inhibition apPOL 180',"DRC-1, 180', concentration 40",86.2556%
same,% inhibition apPOL 180',"DRC-1, 180', concentration 80",82.2791%
same,% inhibition Apol 40',"DRC-2, 40', concentration 10 (unit not given)",63%
same,% inhibition Apol 40',"DRC-2, 40', concentration 20 (unit not given)",71%
same,% inhibition Apol 40',"DRC-2, 40', concentration 80 (unit not given)",54%
same,% inhibition ApPOL 90',"DRC-2, 90', concentration 10 (unit not given)",63%
same,% inhibition ApPOL 90',"DRC-2, 90', concentration 20 (unit not given)",71%
same,% inhibition ApPOL 90',"DRC-2, 90', concentration 40 (unit not given)",71%
same,% inhibition apPOL 180',"DRC-2, 180', concentration 10 (unit not given)",54%
same,% inhibition apPOL 180',"DRC-2, 180', concentration 20 (unit not given)",63%
same,% inhibition apPOL 180',"DRC-2, 180', concentration 40 (unit not given)",63%
same,% inhibition Apo pol 5',"DRC-2, concentration 2.5",35%
same,% inhibition Apo pol 5',"DRC-2, concentration 5",43%
same,% inhibition Apo pol 5',"DRC-2, concentration 10",50%
same,% inhibition Apo pol 5',"DRC-2, concentration 20",55%
same,% inhibition Apo pol 5',"DRC-2, concentration 40",58%
same,% inhibition Apo pol 5',"DRC-2, concentration 80",31%
same,% inhibition Apol 40',"DRC-2, 40', concentration 2.5",32%
same,% inhibition Apol 40',"DRC-2, 40', concentration 5",45%
same,% inhibition Apol 40',"DRC-2, 40', concentration 10",63%
same,% inhibition Apol 40',"DRC-2, 40', concentration 20",71%
same,% inhibition Apol 40',"DRC-2, 40', concentration 40",72%
same,% inhibition Apol 40',"DRC-2, 40', concentration 80",54%
same,% inhibition ApPOL 90',"DRC-2, 90', concentration 2.5",28%
same,% inhibition ApPOL 90',"DRC-2, 90', concentration 5",42%
same,% inhibition ApPOL 90',"DRC-2, 90', concentration 10",63%
same,% inhibition ApPOL 90',"DRC-2, 90', concentration 20",71%
same,% inhibition ApPOL 90',"DRC-2, 90', concentration 40",71%
same,% inhibition ApPOL 90',"DRC-2, 90', concentration 80",56%
same,% inhibition apPOL 180',"DRC-2, 180', concentration 2.5",18%
same,% inhibition apPOL 180',"DRC-2, 180', concentration 5",27%
same,% inhibition apPOL 180',"DRC-2, 180', concentration 10",54%
same,% inhibition apPOL 180',"DRC-2, 180', concentration 20",63%
same,% inhibition apPOL 180',"DRC-2, 180', concentration 40",63%
same,% inhibition apPOL 180',"DRC-2, 180', concentration 80",53%
same,DNA Pol,primary screen value of the 186 hits,85
same,DNA Pol,"primary screen value, head ""DNA Pol""",85
